Here are results for 12 compounds from publication PMC12948223, “HSP70 Interactome‐Mediated Proteolysis Targeting Chimera (HSP70‐PROTAC) for Ferroptosis‐Driven Cancer Treatment” (Advanced Science, 2025).

One assay has as its system HT1080 cells. Briefly: Cell viability CCK-8 assay. It counts as cell-based, human. As to conditions: Homo sapiens, HT-1080, CCK-8, 48 h, read-out: IC50 (cytotoxicity). The protocol:
To determine whether GPX4 degradation following treatment with HSP70‐PROTACs triggers cancer cell ferroptosis, we initially assessed the viability of HT1080 cells using the CCK‐8 assay after treatment with various concentrations of the tested compounds for 48 h. GPX4 inhibitor ML162, HSP70 inhibitor apoptozole, and two GPX4 non‐degradable HSP70‐PROTAC molecules, GDAz‐Neg1 and GDAz‐Neg2, were selected as controls. […] This remarkable activity might partly be ascribed to the high cell permeability conferred by the piperazine ring. […] We speculated that the potent anti‐proliferative activity of GDAz‐Neg2 may be attributed to the GPX4 inhibition.
The compounds under investigation were initially dissolved in dimethyl sulfoxide (DMSO) to generate stock solutions with a concentration of 10 mM. HT1080 cells or other tested cells were seeded in 96‐well plates at a density of 3000–5000 cells well^−1 and cultured at 37 °C. Following a 24‐h incubation period, the tested compounds were added to the wells at various concentrations (the DMSO stock solutions of all the tested compounds were diluted with culture medium to obtain the designated concentration containing a final concentration of DMSO less than 0.5% (v/v)). The cells were then cultured for an additional 48 or 72 h. Cell Counting Kit 8 (CCK‐8) assay was conducted to examine the effects of the tested compounds on cell viability, and the absorbance was measured at a wavelength of 450 nm. The IC50 values were determined utilizing GraphPad Prism software through nonlinear regression analysis. All experiments were independently repeated at least three times.

For a further assay, the target named is T1, GPX4 (Homo sapiens, UniProt P36969).
T1 sequence (P36969 1-170 isoform P36969-2): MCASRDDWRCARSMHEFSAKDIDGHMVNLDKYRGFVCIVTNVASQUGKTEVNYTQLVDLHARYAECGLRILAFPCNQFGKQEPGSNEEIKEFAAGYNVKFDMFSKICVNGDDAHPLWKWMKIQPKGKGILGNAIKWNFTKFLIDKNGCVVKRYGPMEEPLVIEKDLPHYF
Briefly: GPX4 degradation by western blot in HT1080 cells. The class given is cell-based. Set-up: determine the changes in the endogenous levels of GPX4 by western blot assay; endogenous in cells; host or cells: HT1080 fibrosarcoma cells, including siRNA-knockdown derivatives. The protocol: To evaluate the GPX4 degradation efficiency of the synthesized HSP70‐PROTACs GDAz‐1–14, we first selected ferroptosis‐sensitive HT1080 fibrosarcoma cells (highly‐expressing GPX4) treated with different concentrations (0.1, 0.3, 1, and 3 µM) of these chimeras to determine the changes in the endogenous levels of GPX4 by western blot assay after 24 h treatment. […] This finding underscores the crucial role of the linker in HSP70‐PROTAC‐mediated protein degradation. […] In the case of alkyl chain derivatives (GDAz‐6–10), elongating the length of the linker generally led to a decreased GPX4 degrading activity. […] Thus, GDAz‐3 was selected for further evaluation.
Cells were seeded at a density of 4 × 10^5 cells well^−1 in 6‐well plates and allowed to incubate overnight. Cells were incubated with the indicated treatments. Thereafter, the cells were collected and lysed with RIPA buffer containing serine protease and phosphatase inhibitors for 30 min on ice. Proteins were quantified by using a BCA protein assay kit (Beyotime). Subsequently, SDS‐PAGE sample loading buffer was added, and the mixture was heated in a 100 °C metal bath for 10 min to denature the proteins. Protein samples from each group were separated by SDS‐PAGE gel and transferred to a PVDF membrane. After blocking with 5% skim milk for 1 h at room temperature, primary antibodies (GPX4: abcam (#ab125066, 1:1000); Hsp70: abcam (#ab2787, 1:1000); CHIP: HUABIO (#ST7108, 1:1000); UpingBio Technology Co., Ltd. (BRD4, #YP‐Ab‐18034, 1:1000; BAG‐1, #YP‐Ab‐00575, 1:1000); GAPDH: Proteintech (#60004‐1‐Ig, 1:50 000)) were used and incubated at 4 °C overnight on a rotary shaker. After washing the membranes with TBST buffer five times, the membranes were incubated with a second antibody (Cell Signaling Technology, #7074S, 1:1000 and #7076S, 1:1000) at room temperature for 2 h. Ultimately, the membrane was washed five times, and the antibody‐protein complexes were visualized using an ECL luminescence reagent (Biosharp, Shanghai, China). The relative intensities of the bands were analyzed by ImageJ and normalized to a loading control.

SMILES strings stand for the structures.

Take `COc1ccc(-c2nc(-c3cc(C(F)(F)F)cc(C(F)(F)F)c3)n(Cc3ccc(C(=O)NCCOCCn4cc(COc5ccc(N(C(=O)CCl)C(C(=O)NCCc6ccccc6)c6cccs6)cc5Cl)nn4)cc3)c2-c2ccc(OC)cc2)cc1` (stereo not drawn) [GDAz-1, 4-((2-(3,5-bis(trifluoromethyl)phenyl)-4,5-bis(4-methoxyphenyl)-1H-imidazol-1-yl)methyl)-N-(2-(2-(4-((2-chloro-4-(2-chloro-N-(2-oxo-2-(phenethylamino)-1-(thiophen-2-yl)ethyl)acetamido)phenoxy)methyl)-1H-1,2,3-triazol-1-yl)ethoxy)ethyl)benzamide]: the half-inhibitory concentration (IC50) in the assay on HT1080 cells came out at 21700 ± 5300 nM. Still for that read-out and setting: for `COc1ccc(-c2nc(-c3cc(C(F)(F)F)cc(C(F)(F)F)c3)n(Cc3ccc(C(=O)NCCOCCOCCn4cc(COc5ccc(N(C(=O)CCl)C(C(=O)NCCc6ccccc6)c6cccs6)cc5Cl)nn4)cc3)c2-c2ccc(OC)cc2)cc1` (stereo not drawn) [GDAz-2, 4-((2-(3,5-bis(trifluoromethyl)phenyl)-4,5-bis(4-methoxyphenyl)-1H-imidazol-1-yl)methyl)-N-(2-(2-(2-(4-((2-chloro-4-(2-chloro-N-(2-oxo-2-(phenethylamino)-1-(thiophen-2-yl)ethyl)acetamido)phenoxy)methyl)-1H-1,2,3-triazol-1-yl)ethoxy)ethoxy)ethyl)benzamide] the value was 390 ± 110 nM; for `COc1ccc(-c2nc(-c3cc(C(F)(F)F)cc(C(F)(F)F)c3)n(Cc3ccc(C(=O)NCCOCCOCCOCCOCCn4cc(COc5ccc(N(C(=O)CCl)C(C(=O)NCCc6ccccc6)c6cccs6)cc5Cl)nn4)cc3)c2-c2ccc(OC)cc2)cc1` (stereo not drawn) [GDAz-4, 4-((2-(3,5-bis(trifluoromethyl)phenyl)-4,5-bis(4-methoxyphenyl)-1H-imidazol-1-yl)methyl)-N-(14-(4-((2-chloro-4-(2-chloro-N-(2-oxo-2-(phenethylamino)-1-(thiophen-2-yl)ethyl)acetamido)phenoxy)methyl)-1H-1,2,3-triazol-1-yl)-3,6,9,12-tetraoxatetradecyl)benzamide], 390 ± 80 nM; for `COc1ccc(-c2nc(-c3cc(C(F)(F)F)cc(C(F)(F)F)c3)n(Cc3ccc(C(=O)NCCOCCOCCOCCOCCOCCn4cc(COc5ccc(N(C(=O)CCl)C(C(=O)NCCc6ccccc6)c6cccs6)cc5Cl)nn4)cc3)c2-c2ccc(OC)cc2)cc1` (stereo not drawn) [GDAz-5, 4-((2-(3,5-bis(trifluoromethyl)phenyl)-4,5-bis(4-methoxyphenyl)-1H-imidazol-1-yl)methyl)-N-(17-(4-((2-chloro-4-(2-chloro-N-(2-oxo-2-(phenethylamino)-1-(thiophen-2-yl)ethyl)acetamido)phenoxy)methyl)-1H-1,2,3-triazol-1-yl)-3,6,9,12,15-pentaoxaheptadecyl)benzamide], 210 ± 30 nM. On the same count and under the same terms, for `COc1ccc(-c2nc(-c3cc(C(F)(F)F)cc(C(F)(F)F)c3)n(Cc3ccc(C(=O)NCCNC(=O)Cn4cc(COc5ccc(N(C(=O)CCl)C(C(=O)NCCc6ccccc6)c6cccs6)cc5Cl)nn4)cc3)c2-c2ccc(OC)cc2)cc1` (stereo not drawn) [GDAz-6, 4-((2-(3,5-bis(trifluoromethyl)phenyl)-4,5-bis(4-methoxyphenyl)-1H-imidazol-1-yl)methyl)-N-(2-(2-(4-((2-chloro-4-(2-chloro-N-(2-oxo-2-(phenethylamino)-1-(thiophen-2-yl)ethyl)acetamido)phenoxy)methyl)-1H-1,2,3-triazol-1-yl)acetamido)ethyl)benzamide] the value was 350 ± 80 nM; for `COc1ccc(-c2nc(-c3cc(C(F)(F)F)cc(C(F)(F)F)c3)n(Cc3ccc(C(=O)NCCCNC(=O)Cn4cc(COc5ccc(N(C(=O)CCl)C(C(=O)NCCc6ccccc6)c6cccs6)cc5Cl)nn4)cc3)c2-c2ccc(OC)cc2)cc1` (stereo not drawn) [GDAz-7, 4-((2-(3,5-bis(trifluoromethyl)phenyl)-4,5-bis(4-methoxyphenyl)-1H-imidazol-1-yl)methyl)-N-(3-(2-(4-((2-chloro-4-(2-chloro-N-(2-oxo-2-(phenethylamino)-1-(thiophen-2-yl)ethyl)acetamido)phenoxy)methyl)-1H-1,2,3-triazol-1-yl)acetamido)propyl)benzamide], 530 ± 70 nM. In the case of `COc1ccc(-c2nc(-c3cc(C(F)(F)F)cc(C(F)(F)F)c3)n(Cc3ccc(C(=O)NCCCCNC(=O)Cn4cc(COc5ccc(N(C(=O)CCl)C(C(=O)NCCc6ccccc6)c6cccs6)cc5Cl)nn4)cc3)c2-c2ccc(OC)cc2)cc1` (stereo not drawn) [GDAz-8, 4-((2-(3,5-bis(trifluoromethyl)phenyl)-4,5-bis(4-methoxyphenyl)-1H-imidazol-1-yl)methyl)-N-(4-(2-(4-((2-chloro-4-(2-chloro-N-(2-oxo-2-(phenethylamino)-1-(thiophen-2-yl)ethyl)acetamido)phenoxy)methyl)-1H-1,2,3-triazol-1-yl)acetamido)butyl)benzamide], the IC50 in the assay on HT1080 cells is 130 ± 40 nM. `COc1ccc(-c2nc(-c3cc(C(F)(F)F)cc(C(F)(F)F)c3)n(Cc3ccc(C(=O)NCCCCCNC(=O)Cn4cc(COc5ccc(N(C(=O)CCl)C(C(=O)NCCc6ccccc6)c6cccs6)cc5Cl)nn4)cc3)c2-c2ccc(OC)cc2)cc1` (stereo not drawn) [GDAz-9, 4-((2-(3,5-bis(trifluoromethyl)phenyl)-4,5-bis(4-methoxyphenyl)-1H-imidazol-1-yl)methyl)-N-(5-(2-(4-((2-chloro-4-(2-chloro-N-(2-oxo-2-(phenethylamino)-1-(thiophen-2-yl)ethyl)acetamido)phenoxy)methyl)-1H-1,2,3-triazol-1-yl)acetamido)pentyl)benzamide]: the half-inhibitory concentration (IC50) in the assay with HT1080 cells worked out at 140 ± 20 nM. Take `COc1ccc(-c2nc(-c3cc(C(F)(F)F)cc(C(F)(F)F)c3)n(Cc3ccc(C(=O)NCCCCCCNC(=O)Cn4cc(COc5ccc(N(C(=O)CCl)C(C(=O)NCCc6ccccc6)c6cccs6)cc5Cl)nn4)cc3)c2-c2ccc(OC)cc2)cc1` (stereo not drawn) [GDAz-10, 4-((2-(3,5-bis(trifluoromethyl)phenyl)-4,5-bis(4-methoxyphenyl)-1H-imidazol-1-yl)methyl)-N-(6-(2-(4-((2-chloro-4-(2-chloro-N-(2-oxo-2-(phenethylamino)-1-(thiophen-2-yl)ethyl)acetamido)phenoxy)methyl)-1H-1,2,3-triazol-1-yl)acetamido)hexyl)benzamide]: the concentration for half-maximal inhibition (IC50) with HT1080 cells was above 30000 nM. On to `COc1ccc(-c2nc(-c3cc(C(F)(F)F)cc(C(F)(F)F)c3)n(Cc3ccc(C(=O)NCCOCCOCCOCCn4cc(COc5ccc(N(C(=O)CO)C(C(=O)NCCc6ccccc6)c6cccs6)cc5Cl)nn4)cc3)c2-c2ccc(OC)cc2)cc1` (stereo not drawn) [GDAz-OH], for which the “GPX4 degradation by negative control compounds” value at GPX4 (HT1080 cells, 24 h, tested concentrations (Figure 4A)) is “none of the compounds effectively triggered GPX4 degradation”. For the compound `COc1ccc(-c2nc(-c3ccc(OCc4cn(CCOCCOCCOCCNC(=O)CCCC[C@@H]5SC[C@@H]6NC(=O)N[C@@H]65)nn4)cc3)n(Cc3ccc(C(=O)NCCOCCOCCOCCn4cc(COc5ccc(N(C(=O)CCl)C(C(=O)NCCc6ccccc6)c6cccs6)cc5Cl)nn4)cc3)c2-c2ccc(OC)cc2)cc1` (stereo partly drawn) [GDAz-biotin], the “GPX4 degradation activity of the probe” value on GPX4 (HT1080 cells, 24 h, concentration over 5 µM) is given as “considerable GPX4 degradation activity”. As for `NS(=O)(=O)OC[C@@H]1C[C@@H](n2ccc3c(N[C@H]4CCc5ccccc54)ncnc32)C[C@@H]1O` [MLN4924, reference compound], on GPX4 (HT-1080, HT1080 cells, MLN4924 2.5 µM alone, read-out: GPX4 % of control), the remaining activity at 2.5 µM came to 96%.
